Results as given in US9624215B2, “Amine derivative or salt thereof” (TOYAMA CHEMICAL CO., LTD., priority 2012, dated 2017).

test system: normal human neonatal foreskin epidermal keratinocytes (NHEK-F); assay: Cell proliferation inhibition test; assay type: cell-based; conditions: Keratinocyte, 72 h, NHEK-F cells, three days incubation, ATPlite or CellTiterGlo, read-out: IC50 (concentration of the compound at which the cell count is reduced by 50%)
Protocol: 2×10^3 normal human neonatal foreskin epidermal keratinocytes (NHEK-F) (Kurabo, KK-4009) were suspended in 100 μL of Humedia-EG2 (Kurabo, KK-2150S) medium, plated in a 96-well plate and incubated overnight. The test compound was added on the following day and the cells were incubated for further three days. The cell count was determined using ATPlite (PerkinElmer, 6016739) or CellTiterGlo (Promega, G7573).
The inhibition rate was calculated from the following formula to determine the concentration of the compound at which the cell count is reduced by 50% (IC50). Inhibition rate (%)=100−(cell count in the presence of test compound/cell count in the absence of test compound)×100

SMILES	IC50 [nM]
COc1ccc(-c2cc(Nc3ncc(C4CC4)cc3C(=O)O)cc3ccn(C)c23)cc1 [Example 487, 5-cyclopropyl-2-((7-(4-methoxyphenyl)-1-methyl-1H-indol-5-yl)amino)nicotinic acid]	≤ 10
O=C(O)c1cc(C2CC2)ccc1Nc1ccc2c(ccn2C(=O)c2ccc(Cl)cc2)c1 [Example 204, 2-((1-(4-chlorobenzoyl)-1H-indol-5-yl)amino)-5-cyclopropylbenzoic acid]	10 to 100
CC(C)Cn1c(=O)sc2cc(Nc3ncc(C4CC4)cc3C(=O)O)ccc21 [Example 563, 5-Cyclopropyl-2-((3-isobutyl-2-oxo-2,3-dihydro-1,3-benzothiazol-6-yl)amino)nicotinic acid]	10 to 100
O=C(O)c1cc(C2CC2)cnc1Nc1ccc2c(c1)Cc1ccccc1-2 [Example 405, 2-((9H-fluoren-2-yl)amino)-5-cyclopropylnicotinic acid]	10 to 100
O=C(O)c1cc(C2CC2)cnc1Nc1ccc2[nH]cc(-c3ccccc3)c2c1 [Example 156, 5-cyclopropyl-2-((3-phenyl-1H-indol-5-yl)amino)nicotinic acid]	100 to 1000
COCCCc1cc(Nc2ncc(C3CC3)cc2C(=O)O)cc2ccn(CC(C)C)c12 [Example 608, 5-cyclopropyl-2-((7-(3-methoxypropyl)-1-(2-methylpropyl)-1H-indol-5-yl)amino)nicotinic acid]	≤ 10
O=C(O)c1cc(Cl)ccc1Nc1ccc2c(ccn2Cc2cccc(OCCN3CCOCC3)c2)c1 [Example 296, 5-chloro-2-((1-(3-(2-morpholinoethoxyl)benzyl)-1H-indol-5-yl)amino)benzoic acid]	10 to 100
COCCOc1cccc(Cn2ccc3cc(Nc4ncc(C5CC5)cc4C(=O)O)ccc32)c1 [Example 506, 5-cyclopropyl-2-((1-(3-(2-methoxyethoxyl)benzyl)-1H-indol-5-yl)amino)nicotinic acid]	≤ 10
Cc1ccc(-c2cn(C)c3ccc(Nc4ncc(C5CC5)cc4C(=O)O)cc23)cc1 [Example 571, 5-cyclopropyl-2-((1-methyl-3-(4-methylphenyl)-1H-indol-5-yl)amino)nicotinic acid]	10 to 100
Cc1ccc(-n2ccc3cc(Nc4ccc(Cl)cc4C(=O)O)ccc32)nn1 [Example 100, 5-chloro-2-((1-(6-methylpyridazin-3-yl)-1H-indol-5-yl)amino)benzoic acid]	100 to 1000
O=C(O)c1cc(C2CC2)cnc1Nc1ccc2c(-c3ccccc3)cn(CC3CC3)c2c1 [Example 45, 5-cyclopropyl-2-((1-(cyclopropylmethyl)-3-phenyl-1H-indol-6-yl)amino)nicotinic acid]	10 to 100
O=C(O)c1cc(Cl)ccc1Nc1ccc2c(ccn2-c2ccncc2)c1 [Example 315, 5-chloro-2-((1-(pyridin-4-yl)-1H-indol-5-yl)amino)benzoic acid]	10 to 100
COc1cccc(-c2cc(Nc3ncc(C4CC4)cc3C(=O)O)cc3ccn(C)c23)c1 [Example 486, 5-cyclopropyl-2-((7-(3-methoxyphenyl)-1-methyl-1H-indol-5-yl)amino)nicotinic acid]	≤ 10
O=C(O)c1cc(C2CC2)cnc1Nc1cccc2c(N3CCOCC3)nccc12 [Example 475, 5-cyclopropyl-2-(1-morpholinoisoquinolin-5-ylamino)nicotinic acid]	100 to 1000
O=C(O)c1cc(C2CC2)cnc1Nc1ccc2c(c1)CCCN2c1ccccc1 [Example 181, 5-cyclopropyl-2-((1-phenyl-1,2,3,4-tetrahydroquinolin-6-yl)amino)nicotinic acid]	≤ 10
Cn1ccc2cc(Nc3ncc(C4CC4)cc3C(=O)O)cc(C3=CCCCC3)c21 [Example 504]	≤ 10

SMILES	IC50 [nM]
CCO/C=C/c1cc(Nc2ncc(C3CC3)cc2C(=O)O)cc2ccn(C)c12 [Example 604, 5-cyclopropyl-2-((7-((E)-2-ethoxyethenyl)-1-methyl-1H-indol-5-yl)amino)nicotinic acid]	10 to 100
CC(C)Cn1ncc2cc(Nc3ncc(C4CC4)cc3C(=O)O)ccc21 [Example 541, 5-cyclopropyl-2-((1-isobutyl-1H-indazol-5-yl)amino)nicotinic acid]	10 to 100
CC(C)Cn1c(CO)cc2cc(Nc3ncc(C4CC4)cc3C(=O)O)ccc21 [Example 175, 5-cyclopropyl-2-((2-(hydroxymethyl)-1-isobutyl-1H-indol-5-yl)amino)nicotinic acid]	100 to 1000
Cn1ccc2cc(Nc3ncc(C4CC4)cc3C(=O)O)cc(-c3cccc(F)c3)c21 [Example 465, 5-cyclopropyl-2-((7-(3-fluorophenyl)-1-methyl-1H-indol-5-yl)amino)nicotinic acid]	≤ 10
O=C(O)c1cc(C2CC2)cnc1Nc1ccc2c(ccn2Cc2cc(C(F)(F)F)cc(C(F)(F)F)c2)c1 [Example 499, 2-((1-(3,5-bis(trifluoromethyl)benzyl)-1H-indol-5-yl)amino)-5-cyclopropylnicotinic acid]	≤ 10
Cn1ccc2cc(Nc3ncc(C4CC4)cc3C(=O)O)cc(-c3cccc(Cl)c3)c21 [Example 489, 2-((7-(3-chlorophenyl)-1-methyl-1H-indol-5-yl)amino)-5-cyclopropylnicotinic acid]	≤ 10
O=C(O)c1cc(C2CC2)cnc1Nc1cccc2c(-c3ccccc3)ccnc12 [Example 187, 5-cyclopropyl-2-((4-phenylquinolin-8-yl)amino)nicotinic acid]	≤ 10
CC(C)c1cnc(Nc2ccc3c(ccn3Cc3ccccc3)c2)c(C(=O)O)c1 [Example 379, 2-((1-benzyl-1H-indol-5-yl)amino)-5-isopropylnicotinic acid]	10 to 100
CC(C)n1ccc2c(Nc3ncc(C4CC4)cc3C(=O)O)cccc21 [Example 435, 5-cyclopropyl-2-((1-isopropyl-1H-indol-4-yl)amino)nicotinic acid]	10 to 100
Cn1ccc2cc(Nc3ncc(C4CC4)cc3C(=O)O)cc(-c3ccc(Cl)cc3)c21 [Example 490, 2-((7-(4-chlorophenyl)-1-methyl-1H-indol-5-yl)amino)-5-cyclopropylnicotinic acid]	≤ 10
O=C(O)c1cc(Cl)ccc1Nc1ccc2c(ccn2Cc2cscn2)c1 [Example 302, 5-chloro-2-((1-(thiazol-4-ylmethyl)-1H-indol-5-yl)amino)benzoic acid]	10 to 100
COCCN(C)c1cccc(Cn2ccc3cc(Nc4ncc(C5CC5)cc4C(=O)O)ccc32)c1 [Example 511, 5-cyclopropyl-2-((1-(3-((2-methoxyethyl)(methyl)amino)benzyl)-1H-indol-5-yl)amino)nicotinic acid]	≤ 10
CCn1cc(-c2ccccc2)c2cc(Nc3ncc(C4CC4)cc3C(=O)O)ccc21 [Example 170, 5-cyclopropyl-2-((1-ethyl-3-phenyl-1H-indol-5-yl)amino)nicotinic acid]	10 to 100
O=C(O)c1cc(C2CC2)cnc1Nc1ccc2c(cnn2Cc2ccccc2)c1 [Example 395, 2-((1-benzyl-1H-indazol-5-yl)amino)-5-cyclopropylnicotinic acid]	10 to 100
O=C(O)c1cc(C2CC2)cnc1Nc1ccc2c(-c3ccccc3)c[nH]c2c1 [Example 43, 5-cyclopropyl-2-((3-phenyl-1H-indol-6-yl)amino)nicotinic acid]	10 to 100
O=C(O)c1cc(C2CC2)cnc1Nc1ccc2cc(-c3ccccc3)ccc2c1 [Example 218, 5-cyclopropyl-2-((6-phenylnaphthalen-2-yl)amino)nicotinic acid]	10 to 100
